Like-named read-outs stand apart in the source and are kept apart here.
Columns and labels:
[1] = tested on: PPARα/GR chimeric receptors
Protocol: (§1) Cells containing chimeric receptors for the rat, mouse and human PPARα ligand binding domain and rat GR DNA binding domain, as well as control cells, were examined for CH induction by clofibrate in the presence of LPS and spironolactone during clofibrate treatment. Incubations contained 5 ug/ml E. coli lipopolysaccharide and 10 uM spironolactone and were uncorrected for cell progression. Incubations were performed under the same conditions as described above. […] Cells were grown in a volume of 0.2 ml in the wells of a 96 well microtiter plate from an initial cell density of 5×10^5 cells per ml. […] The T194, T194/T144 and T194/EH#7 cell lines contain the mouse PPARα cDNA.

mouse PPARα = target: T1, mouse PPARα (Mus musculus, UniProt P23204); assay: Native PPARα / PPRE CYP2A6 reporter, coumarin 7-hydroxylase induction; conditions: for fold induction at 1100 µM: 1.1 mM clofibrate vs basal; for maximal fold induction: read-out: Maximum Fold Induction, clofibrate-induced CYP2A6 activity
T1 sequence (P23204 1-468): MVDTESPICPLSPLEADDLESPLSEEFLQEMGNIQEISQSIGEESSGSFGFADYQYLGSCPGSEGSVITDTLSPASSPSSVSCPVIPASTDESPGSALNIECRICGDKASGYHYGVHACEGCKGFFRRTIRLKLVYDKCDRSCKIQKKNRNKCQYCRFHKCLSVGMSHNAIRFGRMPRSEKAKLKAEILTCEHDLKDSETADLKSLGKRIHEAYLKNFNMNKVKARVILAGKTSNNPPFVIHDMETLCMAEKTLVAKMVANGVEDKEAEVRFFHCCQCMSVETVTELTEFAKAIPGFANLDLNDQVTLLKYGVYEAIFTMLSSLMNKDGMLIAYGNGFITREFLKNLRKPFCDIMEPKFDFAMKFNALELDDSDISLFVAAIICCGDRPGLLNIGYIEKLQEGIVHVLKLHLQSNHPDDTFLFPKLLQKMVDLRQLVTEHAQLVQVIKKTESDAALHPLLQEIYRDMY
Protocol: (§2) MMTV-LTR1 is native, MMTV-LTR2 is minus CpG, MMTV-LTR3 is TATA only. Orientation is relative to reporter. CH activity is pmole per 10^6 cell min. Assuming the cells double every 24 hours, the maximium cell density is 2×10^6 cells per ml, using the log average cell concentration for each day of exposure. Earliest post fusion-values were used. […] It is merely a concentration in the monotonic portion of the dose response curve which has been used consistently in many experiments.
The comparison was performed by incubating 0.2 ml cells for 3 days in the wells of a microtiter plate at an initial cell concentration of 5×10^5 cells per ml in the presence of increasing amounts of inducer and 50 uM coumarin.
(§3) In this test we used an initial cell concentration of 2 million cells/ml contained in 0.2 ml culture medium per well of a 96 well microtiter plate. Coumarin (0.05 mM) and clofibrate (concentration was an experimental variable) were added at the beginning of the incubation time. Cells were incubated for 3 days and the 7-hydroxycoumarin content in the wells was analyzed by fluorescence with excitation at 360 nm and emission at 460 nm using a Cytofluor 2350 (Millipore). […] The elevation in pH increases 7-hydroxycoumarin fluorescence by increasing the proportion of the fluorochrome which is ionized. Quantitation was achieved by comparison to a 7-hydroxycoumarin standard curve.
The ACO-PPRE constructs were centrifuged and resuspended at a density of 2 million cells per milliliter in RPMI media with 9% horse serum. One hundred microliters of the cell suspension was distributed into a total of four rows, two rows being at the opposite end of a 96 well microtiter plate. One set was labeled as clofibrate and the other set was labeled as the blank. Clofibrate was then added at concentration of 3 mM, 2 mM, 1 mM, 0.5 mM & 0 mM to the appropriate wells. Stock concentration of clofibrate was 50 mM in 75 mM NaOH. One hundred microliters of media containing 100 micromolar coumarin was then added to the clofibrate containing wells. The negative control contained cell suspension and 100 uM coumarin only. The plates were placed at […] for three days. In a distinct set of wells, one hundred microliters of hydroxy-coumarin standard was placed in two rows The concentrations are in units of pmoles and the values are: 1250, 625, 313, 156, 78, 39, 19.5 & 0. At the end of the three day incubation period, one hundred microliters of media containing 100 uM coumarin was added to the wells labeled as blank. Next 0.1M Tris pH 9.0 was distributed to the contents of each well. Fluorescence was analyzed with a cytofluor 2350 (Millipore) with excitation at 360 nm and emission at 460 nm (both filters with a 40 nm bandwidth). The net fluorence was calculated by subtracting the fluorescence of the blank wells from the fluorescence of the test wells for each clofibrate concentration. Conversion to pmole product per well was accomplished by comparison to the fluorescence of the standards. The responsiveness of the different constructs to clofibrate induction was measured immediately after viable, hygromycin resistant cells were obtained and periodically thereafter in order to evaluate the stability of the system. The data were graphed as the fold induction relative to the without clofibrate control incubation. This is a measure of the responsiveness of the system and corrects for differences in the negative control values for the different reporter constructs.

hPPAR = target: T2, hPPAR (Homo sapiens, UniProt Q07869); assay: cell-based; conditions: 1.1 mM clofibrate vs basal
T2 sequence (Q07869 1-468): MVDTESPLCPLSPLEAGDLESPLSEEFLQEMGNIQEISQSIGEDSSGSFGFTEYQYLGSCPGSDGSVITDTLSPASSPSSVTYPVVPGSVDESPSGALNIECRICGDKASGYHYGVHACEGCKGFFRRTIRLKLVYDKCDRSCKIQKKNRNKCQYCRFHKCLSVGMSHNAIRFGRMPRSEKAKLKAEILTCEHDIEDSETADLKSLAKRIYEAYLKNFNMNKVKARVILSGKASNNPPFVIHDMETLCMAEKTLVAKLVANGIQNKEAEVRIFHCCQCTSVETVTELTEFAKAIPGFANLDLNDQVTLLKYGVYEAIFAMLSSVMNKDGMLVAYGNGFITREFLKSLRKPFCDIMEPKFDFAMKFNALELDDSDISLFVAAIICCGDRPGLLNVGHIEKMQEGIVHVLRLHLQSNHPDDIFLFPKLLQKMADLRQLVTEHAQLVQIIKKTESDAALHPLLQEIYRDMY
Protocol: as §2

[2] = tested on: reporter construct without PPARα; assay: CYP2A6 reporter in control cells without PPARα or chimeric receptor; conditions: for fold induction at 1100 µM: Homo sapiens, 1.1 mM clofibrate vs basal
Protocol: as §1, §2
The above-described assay conditions were used and the results were normalized to the respective basal expression levels.
as §3

AHH-1 TK± cells = tested on: AHH-1 TK± cells
Excerpt: The reporter gene expression as reported in previous tables and figures is expressed as pmoles product/well in a 96 well microtiter plate as measured fluorometrically. […] A toxicity curve reflecting the relative number of cells/well present at the end of treatment was obtained as a function of chemical concentration. […] This suppression can be corrected for by determining the cell concentration in the well or by determining the suppression of CH activity in a cell line which constitutively expresses the reporter.

In the case of `CCOC(=O)C(C)(C)Oc1ccc(Cl)cc1` [clofibrate], the “7-hydroxycoumarin production by cell lines containing the chimeras” value [1] is reported as “very small but detectable, concentration-dependent increase”, the “CYP2A6-catalyzed coumarin 7-hydroxylase activity upon treatment of the cells” value (mouse PPARα) is reported as “concentration dependent increase” and the “clofibrate-induced activity relative to background levels” value (mouse PPARα) is reported as 3 to 10 times. For the same compound, the “fold induction after growth in exponential cell culture” value (mouse PPARα) was “about 2 fold”, the “fold induction, initial” value (mouse PPARα) was 4 to 6 fold and the “increase in CYP2A6 expression after exposure to clofibrate” value (mouse PPARα) was “greater than 10 fold”. The “potency rank on a molar basis” value (mouse PPARα) was “then clofibrate”, the “ranking of chemicals of known ability to induce peroxisome proliferation” value (mouse PPARα) was “correctly rank” and the “reporter gene expression, concentration response” value (mouse PPARα) was “concentration-dependent increases”. For the same compound, the signal-to-noise ratio (mouse PPARα) was “about 10”, the fold induction at 1100 µM (mouse PPARα; read-out: Coumarin Hydroxylase Activity Induced (Fold), cell line 7.10/T225, receptor orientation 3'-5' (HSVtk mPPAR; SV40, JCO, HSVtk#7)) was 0.9 and the fold induction at 1100 µM (mouse PPARα; read-out: Coumarin Hydroxylase Activity Induced (Fold), cell line 7.3/T225, receptor orientation 3'-5' (HSVtk mPPAR; SV40, JCO, HSVtk#7)) was 0.9. It also gave a fold induction at 1100 µM (mouse PPARα; read-out: Coumarin Hydroxylase Activity Induced (Fold), cell line 7.3/T225, receptor orientation 5'-3' (HSVtk mPPAR; SV40, JCO, HSVtk#7)) of 1.5, a fold induction at 1100 µM (mouse PPARα; read-out: Coumarin Hydroxylase Activity Induced (Fold), cell line T194 (SV40 3'-5' mPPAR; HSVtk-OCT, ACO, HSVtkL15)) of 1.5 and a fold induction at 1100 µM (mouse PPARα; read-out: Coumarin Hydroxylase Activity Induced (Fold), cell line T194/HSVtk#7 (SV40 3'-5' mPPAR; SV40, ACO, HSVtk#7)) of 3.3. It also gave a fold induction at 1100 µM (mouse PPARα; read-out: Coumarin Hydroxylase Activity Induced (Fold), cell line T194/T144 (SV40 3'-5' mPPAR; SV40, ACO, MMTV-LTR3)) of 1.2, a fold induction at 1100 µM (mouse PPARα; read-out: Coumarin Hydroxylase Activity Induced (Fold), cell line T247 (HSVtk 3'-5' mPPAR; HSVtk-OCT, JCO, HSVtkL15)) of 1.2 and a maximal fold induction (mouse PPARα; high copy number reporter, vector T144/194, clone 6-1, sequential independent determinations) of 1.57. It also gave a maximal fold induction (mouse PPARα; high copy number reporter, vector T144/194, clone 6-3, sequential independent determinations) of 1.17, a maximal fold induction (mouse PPARα; high copy number reporter, vector T144/194, clone 6-4) of 1.36 and a maximal fold induction (mouse PPARα; high copy number reporter, vector T194EH#7, clone 8-1) of 1.04. The maximal fold induction (mouse PPARα; high copy number reporter, vector T194EH#7, clone 8-5, sequential independent determinations) was 1.27, the maximal fold induction (mouse PPARα; high copy number reporter, vector T194EH#7, clone 8-11) was 1.15 and the maximal fold induction (mouse PPARα; high copy number reporter, vector T194EH#7, clone 8-12) was 1.21. It also gave a maximal fold induction (mouse PPARα; high copy number reporter, vector T194EH#7, clone 8-14) of 1.15, a maximal fold induction (mouse PPARα; vector T194EH#7, clone 8-6 (probably no functional high copy reporter)) of 3.44 and a maximal fold induction (mouse PPARα; vector T194EH#7, clone 8-16 (probably no functional high copy reporter)) of 3.73. The fold induction at 1100 µM (hPPAR; read-out: Coumarin Hydroxylase Activity Induced (Fold), cell line T248 (HSVtk 3'-5' hPPAR; HSVtk-OCT, JCO, HSVtkL15)) was 0.9, the fold induction at 1100 µM (hPPAR; read-out: Coumarin Hydroxylase Activity Induced (Fold), cell line T249 (HSVtk 3'-5' hPPAR; HSVtk-OCT, JCO, HSVtkL15)) was 1.1 and the “7-hydroxycoumarin production in control cells” value [2] was “No increase”. The “clofibrate induction of CH activity in cells containing the reporter alone” value [2] was “did not respond”, the “induction of 7-hydroxycoumarin production in the absence of the PPARα” value [2] was “no induction” and the fold induction at 1100 µM ([2]; read-out: Coumarin Hydroxylase Activity Induced (Fold), cell line T192 (no receptor; HSVtk-OCT, ACO, HSVtkL15)) was 0.8. For the same compound, the fold induction at 1100 µM ([2]; read-out: Coumarin Hydroxylase Activity Induced (Fold), cell line T192/T144 (no receptor; HSVtk-OCT, ACO, MMTV-LTR3)) was 0.7, the fold induction at 1100 µM ([2]; read-out: Coumarin Hydroxylase Activity Induced (Fold), cell line T245 (no receptor; HSVtk-OCT, JCO, HSVtkL15)) was 0.9 and the “difference in toxicity among cell lines” value (AHH-1 TK± cells) was “No differences in toxicity”. The “toxicity to the cells” value (AHH-1 TK± cells) was “toxic”.
